According to patent US20180220650A1, “PLANT GROWTH REGULATOR COMPOUNDS” (Syngenta Participations AG, priority 2015, published 2018):
Like-named read-outs stand apart in the source and are kept apart here.

Tests used:
[1] = Soil stability assay (Stein clay loam soil); assay type: physicochemical; details: for Soil Stability (t1/2, hours): Stein soil:sand 1:1, 0.3 μg per gram of soil, dark, 20° C.
Description: It is highly desirable that agrochemicals applied to soil in order to deliver a beneficial biological effect can exist in the soil for a prolonged period of time with minimal degradation. However, a biologically active agrochemical compound may undergo chemical transformation in soil, leading to decreased levels of activity and a decrease in a desired biological effect. Simple laboratory degradation studies can be used to evaluate the disappearance due to biotic and abiotic processes of a compound in soil. The time taken for a compound to degrade in soil allows the estimation of their half-life (t1/2), which corresponds to the time in which 50% of the compound under evaluation is degraded in soil. […] Stock standard solutions were prepared by dissolving 1 mg of each test compound (ie, compounds (Ib-1, Ib-19 and AB01) in acetonitrile. The stock standard solutions were stored at 6° C. Working standard solutions were then obtained by a series of dilutions of the stock standard solutions for an external calibration. A treatment solution of 100 μg/mL concentration for each test compound was prepared in acetonitrile:water (6:4)(v:v). Soil samples used for this soil stability assay were collected at the Syngenta Research Centre location in Stein (Switzerland). The soil was classified as clay loam soil. Certain physical properties of the soil are described in Table 4. 2 mm sieved Stein soil was mixed with sand at ratio 1:1 prior to starting the laboratory soil degradation experiment. 10 g of the sand-soil mix (air-dried basis) was weighed into 50 ml Corning® polypropylene centrifuge tubes and soil moisture was adjusted at 45% of the field capacity. Chemical application was performed by applying 30 μl of a 100 μg/mL solution of each test compound to 10 g soil vessel corresponding to a final concentration of 0.3 μg test compound per gram of soil. Three replicates were considered for each test compound. Treated tubes were incubated in the dark at 20° C.±0.5 with 85% relative humidity. For the estimation of half-life, different sampling times of 0, 4, 8, 24, 72, 168 and 336 hours were considered. […] The half-lives were calculated by an exponential regression analysis (single first order kinetic model) plotting the percentage of recovered compound in soil against the time. […] After centrifugation at 3500 rpm for 5 minutes, an aliquot of the supernatant was collected and analyzed via UPLC-MS (Waters Acquity UPLC-MS PDA-Detection: 254 nm- and SQD-Zspray ESI, APCI, ESCi®-; Waters Acquity UPLC Column HSS T3 2.1×30 mm-1.8 μm; Gradient mobile phase with H2O:MeOH (9:1, v:v)+0.1% HCOOH (solvent A) and MeCN+0.1% HCOOH (solvent B); 30% to 100% of solvent B in 1 min, then 100% of solvent B for 0.45 min and then down to 30% solvent B at 1.5 min.; flow rate 0.75 mL·min−1).

[2] = Hydrolytic stability assay; assay type: physicochemical; details: for half-life: aqueous buffer with acetonitrile co-solvent, 40° C., read-out: Hydrolytic Stability (t1/2, hours) (converted); for loss of test compound (definitive half-life could not be determined): pH7
Description: The objective of the hydrolytic stability assay was to determine the chemical stability of the individual test compounds in a strictly controlled and reproducible environment allowing a comparison of their in-vitro stability under aqueous conditions at pH7 and 9. Due to low solubility of these analogues, a percentage of acentonitrile is added to the system to aid solubility (nominally 10-50%). Prior to conducting the individual assays, 1000 ppm stock solutions of all four test compounds were prepared in methanol. The reagents used in the assays were prepared as follows: 20 mM buffer solution: A stock of 20 mM mixed acetate, borate and phosphate buffer was prepared and the pH adjusted to 7 or 9 as required. Test solutions were prepared in LC vials for each test compound in the following manner: Mobile Phase Control: Mobile phase (1 ml)+compound (0.5-40 μl); Hydrolytic Stability: Buffer (1 ml)+compound (0.5-40 μl). The mobile phase and buffer were dispensed into separate glass LC vials, placed into a thermostatted autosampler set at 40° C., and allowed to equilibrate for 30 minutes prior to starting the individual assays. Reactions were initiated by addition of compound and monitored through a series of repeat injections made directly from the vial into an HPLC system at regular time intervals. Initial and subsequent measurements of peak area attributable to the test compound were used to fit exponential half-lives and calculate first-order rate constants. […] Consequently, the percent remaining was recorded at the last assessment time.

[3] = test system: NK Falkone corn seeds; test: Corn seed germination under cold stress; assay type: in vivo; details: 15° C.
Description: The effect of compounds of Formula (I) on the germination of NK Falkone corn seeds under cold stress was evaluated as follows.
NK Falkone corn seeds were sorted by size using 2 sieves, one excluding very big seeds and the other with round holes of 8 to 9 mm diameter. The seeds retained by the latter sieve were used for the germination test.
The corn seeds were placed in 24 well plates (each plate was considered as one experimental unit or replicate). Germination was initiated by the addition of 250 μl of distilled water containing 0.5% DMSO per well as a mean for compound solubilization. 8 replicates (ie, 8 plates) were used for each treatment characterization. Plates were sealed using seal foil (Polyolefin Art. Nr. 900320) from HJ-BIOANALYTIK. All plates were placed horizontally on trolleys in a climatic chamber at 15° C. or 23° C. in complete darkness. The experiment was laid out in a completely randomized design in climatic chamber with 75% Relative Humidity. Foils were pierced, one hole per well using a syringe after 72 hours for experiments performed at 15° C. and after 24 hours for experiments performed at 23° C.
Germination was followed over time by taking photographs at different time points. Image analysis was performed automatically with a macro which was developed using the Image J software. A dynamic analysis of germination was carried out by fitting a logistic curve. Three parameters were calculated from the logistic curve: the T50; the slope and the plateau. All three parameters have a high agronomical relevance and are key requirements to ensure a good early crop-establishment. The T50, slope and plateau for a selection of compounds are outlined in Table 2 below. All the values are expressed as percentages compared to an untreated control. All the three parameters are calculated considering 8 replicates and the kinetic parameters are separately determined for each germination curve. Data in bold indicate germination enhancing statistically significant differences between treated seeds and untreated control (p<0.05). • T50 corresponds to the time needed for half of the seed population to germinate. Higher negative %-values indicate faster germination. • Slope indicates how synchronous the germination of the seed population is. Positive values indicate steeper curve. The steeper the curve, the better and more uniform the germination is. • Plateau provides information about the final germination rate and it is expressed in percentage.
Positive values indicate a larger number of seeds germinated in a given period.

SMILES | Soil Stability (t1/2, hours) [1] [h] | half-life ([2]; pH 7 + 25% MeCN) [h] | half-life ([2]; pH 9 + 25% MeCN) [h] | loss of test compound (definitive half-life could not be determined) [2] | Plateau (% vs control) ([3]; rate 0.04 μM) | Slope (% vs control) ([3]; rate 0.04 μM) | T50 (% vs control) ([3]; rate 0.04 μM) | Plateau (% vs control) ([3]; rate 0.2 μM) | Slope (% vs control) ([3]; rate 0.2 μM) | T50 (% vs control) ([3]; rate 0.2 μM) | Plateau (% vs control) ([3]; rate 1 μM) | Slope (% vs control) ([3]; rate 1 μM) | T50 (% vs control) ([3]; rate 1 μM) | Plateau (% vs control) ([3]; rate 5 μM) | Slope (% vs control) ([3]; rate 5 μM) | T50 (% vs control) ([3]; rate 5 μM) | other results
CC1=CC(O/C=C2/C(=O)O[C@]3(C)CC[C@H]4C(C)(C)CCC[C@]4(C)[C@@H]23)OC1=O (stereo partly shown) [AB01] | 38 | > 17.6 | 3 | insufficient loss was observed | −2.20 | 6.50 | −1.80 | −2.20 | 10.00 | 0.50 | 3.00 | 27.50 | −2.30 | 1.30 | 16.50 | −1.90 | –
CC1=C[C@H](O/C=C2/C(=O)O[C@@H]3c4ccccc4C[C@H]23)OC1=O [GR-24] | – | – | – | – | – | – | – | – | – | – | – | – | – | – | – | – | Plateau (% vs control) ([3]; rate 0.08 μM, final germination rate): 2.10 % vs control; Slope (% vs control) ([3]; rate 0.08 μM, synchrony of germination): −8.50 % vs control; T50 (% vs control) ([3]; rate 0.08 μM, time for half of seeds to germinate): −0.10 % vs control; Plateau (% vs control) ([3]; rate 0.4 μM): 0.90 % vs control; Slope (% vs control) ([3]; rate 0.4 μM): 0.20 % vs control; T50 (% vs control) ([3]; rate 0.4 μM): −1.80 % vs control; Plateau (% vs control) ([3]; rate 2 μM): −1.40 % vs control; Slope (% vs control) ([3]; rate 2 μM): −0.80 % vs control; T50 (% vs control) ([3]; rate 2 μM): −0.50 % vs control; Plateau (% vs control) ([3]; rate 10 μM): 1.50 % vs control; Slope (% vs control) ([3]; rate 10 μM): 7.40 % vs control; T50 (% vs control) ([3]; rate 10 μM): −2.40 % vs control
CC1=C(C)C(O/C=C2/C(=O)O[C@]3(C)CC[C@H]4C(C)(C)CCC[C@]4(C)[C@@H]23)N(c2ccccc2)C1=O (stereo partly shown) [Ib-1] | >720 | > 18.1 | > 17.8 | – | – | – | – | – | – | – | – | – | – | – | – | – | –
CC1=C(C)C(O/C=C2/C(=O)O[C@]3(C)CC[C@H]4C(C)(C)CCC[C@]4(C)[C@@H]23)OC1=O (stereo partly shown) [Ib-19] | 280 | > 17.6 | 19.4 | insufficient loss was observed | 7.10 | 13.60 | −1.10 | −4.60 | 11.40 | −3.20 | 3.00 | 7.60 | 0.20 | 8.30 | 24.20 | −2.80 | soil stability compared to prior art compound AB01 ([1]; Stein soil): superior soil stability; hydrolytic stability compared to the prior art compound ([2]; pH9): superior hydrolytic stability
